Laboratory results: PMC5470993, “Discovery and characterization of small molecule Rac1 inhibitors” (Oncotarget, 2017)
Read-outs that look alike come from different tables or passages of the source.

How the values were obtained:
Rac1 (His-Rac1) [1] = target: T1, Rac1 (His-Rac1) (Homo sapiens, UniProt P63000); assay: fluorescence polarization competition with mant-GDP; type: binding
T1 construct: wild type by context

[2] = target: T2, Rac1 (endogenous, CD18/HPAF cells) (Homo sapiens, UniProt P63000); assay: Rac1-GTP pull-down with GST-PAK1 from EGF-stimulated cells, immunoblot; type: cell-based; details: intact cells, 2 h compound, then EGF 100 ng/ml 5 min
T2 construct: endogenous Rac1 of CD18/HPAF human pancreatic cancer cells; Rac1-GTP captured with GST-PAK1 and blotted with Rac1 antibody 23A8

Rac1 (His-Rac1) [3] = target: T1, Rac1 (His-Rac1); assay: GST-PAK1 pull-down of Rac1-GTP-γS, immunoblot; type: binding
Rac1 (His-Rac1) [4] = target: T1, Rac1 (His-Rac1); assay: GST-PAK1 pull-down of Rac1-GTP-γS, immunoblot; details: read-out: apparent binding affinity

Compound | Ki (Rac1 (His-Rac1) [1]) [µM] | EC50 [2] [µM] | IC50 (Rac1 (His-Rac1) [3]; read-out: IC50) [µM] | IC50 (Rac1 (His-Rac1) [3]) [µM] | Kd (Rac1 (His-Rac1) [4]) [µM]
CC(=O)c1cccc(NC(=O)c2ccc(-c3cccc([N+](=O)[O-])c3)o2)c1 [#1, compound #1] | 6.8 ± 1.4 | 8.3 ± 1.7 | 0.095 ± 0.021 |  | 
Cc1cc(C)cc(NC(=O)Cn2cc(C(=O)c3cccs3)c3ccccc32)c1 [#6, compound #6] |  | 22.4 ± 3.2 |  | 0.088 ± 0.048 | 
Nc1nc2c(ncn2[C@@H]2O[C@H](COP(=O)(O)OP(=O)(O)OP(O)(O)=S)[C@@H](O)[C@H]2O)c(=O)[nH]1 [GTP-γS] |  |  |  |  | 0.243 ± 0.093
